Measured values as given in patent US10507212B2, “Method for use of homopiperazinium compounds in the treatment of cancer” (UNIVERSITÉ LAVAL, priority 2014, dated 2019).

Key:
A549 lung adenocarcinoma = test: In vitro combination treatment with cisplatin or taxol, A549 (MTT); type: cell-based, human; settings: A549, 3 days; increasing concentrations added to suboptimal doses of ASM-024
Protocol: The concomitant effect of ASM-024 and cisplatin or taxol on the proliferation of A549 lung adenocarcinoma and MCF7 breast cancer adenocarcinoma cells was assessed in vitro.
A549 cells (3.0×10^3cells/well) were first cultured with 10% FBS in F12K media and MCF7 cells (10×10^3 cells/well) with 10% FBS in EMEM media for 24 hours to allow cells to adhere to the plate at 37° C. in a humidified incubator with 5% CO2. The next day, the media was replaced in medium containing appropriate drug concentrations […] for an additional 72 hours. Cell viability was quantified using the MTT colorimetric assay (M2128, Sigma) at 575-690 nm.

[1] = test system: A549 human lung carcinoma cells; test: In vivo antitumor assay, A549 xenograft in Balb/c nude mice (Example 29); settings: day 49; ASM-024 45 mg/kg s.c. daily day 14-38; taxol 10 mg/kg i.p. days 21, 28, 35; cisplatin 2.5 mg/kg i.p. days 28, 35
Protocol: For the in vivo antitumor assay, A549 human lung carcinoma cells (3.5×106) in 50% F12K medium (Matrigel) were implanted subcutaneously in the flank of Balb/c nude mice (nu/nu, Charles River) and allowed to grow for 14 days. ASM-024 was administered daily by subcutaneous delivery at the dose of 45 mg/kg from day 14 to day 38 post cell inoculation. Taxol was administrated intraperitoneally at the dose of 10 mg/kg on days 21, 28 and 35. Cisplatin was administrated intraperioneally at the dose of 2.5 mg/kg on days 28 and 35. From day 14 to day 49, tumor length and width were measured once or twice a week with a caliper and tumor volume calculated according to the formula Volume=(width2×length)/2.

| SMILES | inhibition of in vitro proliferation, combination (A549 lung adenocarcinoma) | A549 human carcinoma tumor growth (tumor volume) [1] |
| --- | --- | --- |
| N.N.[Cl][Pt][Cl] [Cisplatin] | potentiated the inhibition of in vitro proliferation | decrease in A549 human carcinoma tumor growth |
| CC(=O)O[C@H]1C(=O)[C@@]2(C)[C@H]([C@H](OC(=O)c3ccccc3)[C@]3(O)C[C@H](OC(=O)[C@H](O)[C@@H](NC(=O)c4ccccc4)c4ccccc4)C(C)=C1C3(C)C)[C@]1(OC(C)=O)CO[C@@H]1C[C@@H]2O [taxol, Paclitaxel] | potentiated the inhibition of in vitro proliferation | decrease in A549 human carcinoma tumor growth |
